Measured values from US20260356823A1, “SODIUM CHANNEL REGULATOR AND USE THEREOF” (SHANGHAI HUILUN PHARMACEUTICAL CO., LTD., priority 2022, published 2026).

Biological target: T1, human Nav1.8 (Homo sapiens, UniProt Q9Y5Y9)
T1 construct: expressed in transfected cells
Experiment: In vitro inhibition of Nav1.8, manual patch clamp on HEK293 cells stably expressing human Nav1.8
Type: cell-based
Details: HEK293, 100 nM, human Nav1.8, manual patch clamp, read-out: Inhibitory activity (inhibition/% at 100 nM concentration)
Procedure: Bioactivity Test 1: In Vitro Inhibition of Nav1.8 by the Compound
By using a manual patch clamp on HEK293 cells stably expressing human Nav1.8, currents on Nav1.8 before and after administration of the compound were compared after the currents on Nav1.8 were stable, to obtain the effect of the compound on the Nav1.8 channel.
The to-be-tested compound was dissolved in DMSO to prepare a 9 mM stock solution, which was taken and dissolved in extracellular fluid at a desired concentration on the day of testing. The extracellular fluid included the following ingredients (mM): NaCl, 137; KCl, 4; CaCl2, 1.8; MgCl2, 1; HEPES, 10; glucose, 10; and pH 7.4 (NaOH titration). All reagents were purchased from Sigma (St. Louis, MO).
The cells were clamped at −80 mV and depolarized with a sustained 10 ms square wave to 10 mV to obtain a current on Nav1.8. This process was repeated every 5 seconds. A maximum current caused by the square wave was detected. After the current is stable, the to-be-tested compound (dissolved in the extracellular fluid at the desired concentration) was perfused. After the current is stable, the strength of blocking Nav1.8 by the compound was calculated based on the currents before and after perfusion of the compound. pCLAMP 10 (Molecular Devices, Union City, CA) was used. That the current is stable means that the current changes over time within a limited range.

T1 sequence (Q9Y5Y9 whole entry): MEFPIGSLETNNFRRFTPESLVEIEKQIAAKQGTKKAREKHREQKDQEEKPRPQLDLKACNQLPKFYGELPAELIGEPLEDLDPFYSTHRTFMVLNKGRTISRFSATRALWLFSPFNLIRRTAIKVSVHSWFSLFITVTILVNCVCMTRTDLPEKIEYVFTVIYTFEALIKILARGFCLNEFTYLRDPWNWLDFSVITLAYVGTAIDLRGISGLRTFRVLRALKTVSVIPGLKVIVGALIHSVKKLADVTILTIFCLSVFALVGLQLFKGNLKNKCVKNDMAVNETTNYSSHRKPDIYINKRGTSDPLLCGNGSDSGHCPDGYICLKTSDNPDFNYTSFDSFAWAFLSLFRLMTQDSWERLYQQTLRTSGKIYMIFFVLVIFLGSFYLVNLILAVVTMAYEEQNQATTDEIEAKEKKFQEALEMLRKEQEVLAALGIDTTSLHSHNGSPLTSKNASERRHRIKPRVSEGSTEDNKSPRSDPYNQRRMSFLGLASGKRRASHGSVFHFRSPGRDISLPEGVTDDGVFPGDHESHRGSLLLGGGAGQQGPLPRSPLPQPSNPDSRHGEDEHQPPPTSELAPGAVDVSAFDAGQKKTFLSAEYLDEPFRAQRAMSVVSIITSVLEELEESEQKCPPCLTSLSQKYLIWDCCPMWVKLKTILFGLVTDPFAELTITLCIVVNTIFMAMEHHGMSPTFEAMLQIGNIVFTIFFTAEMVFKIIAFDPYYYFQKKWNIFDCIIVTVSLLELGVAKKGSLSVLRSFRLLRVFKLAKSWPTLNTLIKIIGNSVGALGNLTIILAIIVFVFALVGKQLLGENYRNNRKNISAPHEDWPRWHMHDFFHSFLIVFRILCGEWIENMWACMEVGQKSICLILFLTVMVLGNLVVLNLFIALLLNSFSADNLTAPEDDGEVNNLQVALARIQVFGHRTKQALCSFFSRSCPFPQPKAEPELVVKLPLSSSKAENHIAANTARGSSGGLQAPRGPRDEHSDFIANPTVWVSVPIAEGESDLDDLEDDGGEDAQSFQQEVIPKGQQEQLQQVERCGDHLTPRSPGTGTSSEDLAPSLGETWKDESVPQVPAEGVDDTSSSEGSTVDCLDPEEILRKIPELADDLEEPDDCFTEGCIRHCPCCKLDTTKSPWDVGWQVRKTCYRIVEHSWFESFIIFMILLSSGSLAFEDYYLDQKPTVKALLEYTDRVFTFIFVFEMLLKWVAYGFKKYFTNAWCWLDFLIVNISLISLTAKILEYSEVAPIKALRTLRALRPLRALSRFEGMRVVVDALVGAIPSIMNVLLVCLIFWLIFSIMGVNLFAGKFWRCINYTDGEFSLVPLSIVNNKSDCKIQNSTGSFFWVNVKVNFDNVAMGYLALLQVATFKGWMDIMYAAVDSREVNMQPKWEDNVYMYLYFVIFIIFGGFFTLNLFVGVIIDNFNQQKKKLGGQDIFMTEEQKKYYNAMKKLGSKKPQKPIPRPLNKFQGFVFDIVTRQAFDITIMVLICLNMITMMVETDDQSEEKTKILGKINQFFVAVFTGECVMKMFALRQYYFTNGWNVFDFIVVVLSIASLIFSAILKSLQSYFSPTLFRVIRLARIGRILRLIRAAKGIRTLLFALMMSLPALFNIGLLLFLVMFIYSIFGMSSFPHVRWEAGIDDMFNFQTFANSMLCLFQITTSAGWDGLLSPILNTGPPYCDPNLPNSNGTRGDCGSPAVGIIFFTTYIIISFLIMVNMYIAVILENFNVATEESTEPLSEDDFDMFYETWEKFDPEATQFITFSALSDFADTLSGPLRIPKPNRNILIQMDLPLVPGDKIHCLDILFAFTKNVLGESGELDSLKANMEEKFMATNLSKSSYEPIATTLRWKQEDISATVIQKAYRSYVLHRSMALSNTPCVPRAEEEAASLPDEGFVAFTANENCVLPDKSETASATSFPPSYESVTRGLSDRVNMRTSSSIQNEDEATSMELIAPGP

Inhibition at 0.1 µM, ≥ 50%:
COc1c([C@H]2[C@H](C(=O)Nc3ccc4c(c3)C(=O)NC4)O[C@@](C)(C(F)(F)F)[C@H]2C)ccc(F)c1F (relative stereo) [Example 1, rel-(2R,3S,4S,5R)-3-(3,4-difluoro-2-methoxyphenyl)-4,5-dimethyl-N-(3-oxoisoindolin-5-yl)-5-(trifluoromethyl)tetrahydrofuran-2-carboxamide]
COc1c([C@H]2[C@H](C(=O)Nc3ccc4o[nH]c(=O)c4c3)O[C@@](C)(C(F)(F)F)[C@H]2C)ccc(F)c1F (relative stereo) [Example 5, rel-(2R,3S,4S,5R)-3-(3,4-difluoro-2-methoxyphenyl)-4,5-dimethyl-N-(3-oxo-2H-benzo[d]isoxazol-5-yl)-5-(trifluoromethyl)tetrahydrofuran-2-carboxamide]
COc1c([C@H]2[C@H](C(=O)Nc3ccc4c(c3)CNC4=O)O[C@@](C)(C(F)(F)F)[C@H]2C)ccc(F)c1F (relative stereo) [Example 8, rel-(2R,3S,4S,5R)-3-(3,4-difluoro-2-methoxyphenyl)-4,5-dimethyl-N-(1-oxo-2,3-dihydro-1H-isoindol-5-yl)-5-(trifluoromethyl)tetrahydrofuran-2-carboxamide]
COc1c([C@H]2[C@H](C(=O)Nc3ccc4c(c3)S(=O)(=O)NC4)O[C@@](C)(C(F)(F)F)[C@H]2C)ccc(F)c1F (relative stereo) [Example 9, rel-(2R,3S,4S,5R)-3-(3,4-difluoro-2-methoxyphenyl)-N-(1,1-dioxo-2,3-dihydrobenzo[d]isothiazol-6-yl)-4,5-dimethyl-5-(trifluoromethyl)tetrahydrofuran-2-carboxamide]
COc1c([C@H]2[C@H](C(=O)Nc3ccc4c(c3)C(=O)NC4=O)O[C@@](C)(C(F)(F)F)[C@H]2C)ccc(F)c1F (relative stereo) [Example 10, rel-(2R,3S,4S,5R)-3-(3,4-difluoro-2-methoxyphenyl)-N-(1,3-dioxo-2,3-dihydro-1H-isoindol-5-yl)-4,5-dimethyl-5-(trifluoromethyl)tetrahydrofuran-2-carboxamide]
COc1c([C@H]2[C@H](C(=O)Nc3ccc4c(=O)[nH][nH]c(=O)c4c3)O[C@@](C)(C(F)(F)F)[C@H]2C)ccc(F)c1F (relative stereo) [Example 12]
COc1c([C@H]2[C@H](C(=O)Nc3ccc4c(c3)C(=O)OOC4N)O[C@@](C)(C(F)(F)F)[C@H]2C)ccc(F)c1F (relative stereo) [Example 13, rel-(2R,3S,4S,5R)—N-(1-amino-4-oxo-3H-benzo[2,1-d][1,2]dioxine-6-yl)-3-(3,4-difluoro-2-methoxyphenyl)-4,5-dimethyl-5-(trifluoromethyl)tetrahydrofuran-2-carboxamide]
COc1c([C@H]2[C@H](C(=O)Nc3cc[n+](C)c(C(N)=O)c3)O[C@@](C)(C(F)(F)F)[C@H]2C)ccc(F)c1F (relative stereo) [Example 16, rel-2-carbamoyl-4-((2R,3S,4S,5R)-3-(3,4-difluoro-2-methoxyphenyl)-4,5-dimethyl-5-(trifluoromethyl)tetrahydrofuran-2-carboxamido)-1-methylpyridin-1-onium iodide]
COc1c([C@H]2[C@H](C(=O)Nc3ccnc(C(N)=S)c3)O[C@@](C)(C(F)(F)F)[C@H]2C)ccc(F)c1F (relative stereo) [Example 22, rel-(2R,3S,4S,5R)—N-[2-(aminothiomethylidene)pyridin-4-yl]-3-(3,4-difluoro-2-methoxyphenyl)-4,5-dimethyl-5-(trifluoromethyl)tetrahydrofuran-2-carboxamide]
